From patent US8828908B2, “Herbicidally active bicyclic 1,3-dione compounds” (Syngenta Limited, priority 2007, dated 2014)

Key:
Format in all cases: in vivo
[1] = tested on: Alopecurus myosuroides (ALOMY); test: Example A post-emergence herbicidal glasshouse test; settings: 312 h, evaluated after 13 days, 100=total damage to plant, 0=no damage
Experimental: (§1) Seeds of a variety of test species were sown in standard soil in pots. After cultivation for one day (pre-emergence) or after 8 days cultivation (post-emergence) under controlled conditions in a glasshouse (at 24/16° C., day/night; 14 hours light; 65% humidity), the plants were sprayed with an aqueous spray solution derived from the formulation of the technical active ingredient in acetone/water (50:50) solution containing 0.5% Tween 20 (polyoxyethelyene sorbitan monolaurate, CAS RN 9005-64-5). The test plants were then grown in a glasshouse under controlled conditions in a glasshouse (at 24/16° C., day/night; 14 hours light; 65% humidity) and watered twice daily. After 13 days for pre and post-emergence, the test was evaluated (100=total damage to plant; 0=no damage to plant).
(§2) Alopecurus myosuroides (ALOMY), Avena fatua (AVEFA), Setaria faberi (SETFA), Echinochloa crus-galli (ECHCG), Solanum nigrum (SOLNI) and Amaranthus retroflexus (AMARE)

[2] = tested on: Amaranthus retroflexus (AMARE); test: as above; settings: 312 h, evaluated after 13 days, 100=total damage to plant, 0=no damage
Experimental: as §1, §2

[3] = tested on: Echinochloa crus-galli (ECHCG); test: as above; settings: 312 h, evaluated after 13 days, 100=total damage to plant, 0=no damage
Experimental: as §1, §2

Setaria faberi (SETFA) [4] = test: as above; settings: 312 h, evaluated after 13 days, 100=total damage to plant, 0=no damage
Experimental: as §1, §2

Avena fatua (AVEFA) [5] = test: as above; settings: 312 h, evaluated after 13 days, 100=total damage to plant, 0=no damage
Experimental: as §1, §2

[6] = tested on: Alopecurus myosuroides (ALOMY); test: Example A pre-emergence herbicidal glasshouse test; settings: 312 h, Rate 250 g/ha, evaluated after 13 days, 100=total damage to plant, 0=no damage to plant
Experimental: as §1, §2

[7] = tested on: Amaranthus retroflexus (AMARE); test: Example A pre-emergence herbicidal glasshouse test; settings: 312 h, Rate 250 g/ha, evaluated after 13 days, 100=total damage to plant, 0=no damage to plant
Experimental: as §1, §2

[8] = tested on: Echinochloa crus-galli (ECHCG); test: Example A pre-emergence herbicidal glasshouse test; settings: 312 h, Rate 250 g/ha, evaluated after 13 days, 100=total damage to plant, 0=no damage to plant
Experimental: as §1, §2

Setaria faberi (SETFA) [9] = test: Example A pre-emergence herbicidal glasshouse test; settings: 312 h, Rate 250 g/ha, evaluated after 13 days, 100=total damage to plant, 0=no damage to plant
Experimental: as §1, §2

Avena fatua (AVEFA) [10] = test: Example A pre-emergence herbicidal glasshouse test; settings: 312 h, Rate 250 g/ha, evaluated after 13 days, 100=total damage to plant, 0=no damage to plant
Experimental: as §1, §2

Structure (SMILES)	pest or weed control at 250 g/ha [1] [%]	pest or weed control at 250 g/ha [2] [%]	pest or weed control at 250 g/ha [3] [%]	pest or weed control at 250 g/ha (Setaria faberi (SETFA) [4]) [%]	pest or weed control at 250 g/ha (Avena fatua (AVEFA) [5]) [%]	pest or weed control at 250 g/ha [6] [%]	pest or weed control at 250 g/ha [7] [%]	pest or weed control at 250 g/ha [8] [%]	pest or weed control at 250 g/ha (Setaria faberi (SETFA) [9]) [%]	pest or weed control at 250 g/ha (Avena fatua (AVEFA) [10]) [%]
Cc1ccc(-c2ccc(C)c(C3=C(O)[C@H]4CC[C@H](C4)C3=O)c2)cc1Cl (single isomer, unassigned) [Compound T49]	0	0	30	30	0	0	0	30	0	0
Cc1ccc(-c2cc(Cl)ccc2C)cc1C1=C(O)[C@H]2CC[C@H](C2)C1=O (single isomer, unassigned) [Compound T50]	0	0	30	0	0	0	0	0	0	0
Cc1ccc(-c2cc(Cl)ccc2Cl)cc1C1=C(O)[C@H]2CC[C@H](C2)C1=O (single isomer, unassigned) [Compound T51]	0	0	0	0	0	0	0	0	0	0
Cc1cc(-c2ccccc2)ccc1C1=C(O)[C@H]2CC[C@H](C2)C1=O (single isomer, unassigned) [Compound T58]	60	0	70	100	0	10	30	40	20	0
CCc1cc(-c2ccc(C)cc2)ccc1C1=C(O)[C@H]2CC[C@H](C2)C1=O (single isomer, unassigned) [Compound T60]	90	0	100	100	50	60	0	100	100	30
CCc1ccc(-c2cnc(Cl)cc2C)cc1C1=C(O)[C@H]2CC[C@H](C2)C1=O (single isomer, unassigned) [Compound T77]	30	0	80	90	0	0	0	0	30	0
CCc1ccc(-c2ccc(Cl)nc2)cc1C1=C(O)[C@H]2CC[C@H](C2)C1=O (single isomer, unassigned) [Compound T78]	70	0	100	100	60	40	0	60	90	30
CCc1ccc(-c2ccc(Cl)nc2C)cc1C1=C(O)[C@H]2CC[C@H](C2)C1=O (single isomer, unassigned) [Compound T79]	40	0	90	100	20	0	0	0	70	0
CCc1ccc(-c2ccc(Cl)nc2Cl)cc1C1=C(O)[C@H]2CC[C@H](C2)C1=O (single isomer, unassigned) [Compound T80]	70	0	90	100	70	30	0	90	100	50
Cc1ccc(-c2ccc(Cl)nc2)cc1C1=C(O)[C@H]2CC[C@H](C2)C1=O (single isomer, unassigned) [Compound T81]	50	0	80	90	70	30	20	50	70	40
CCOc1ccc(-c2ccc(Cl)cc2)cc1C1=C(O)[C@H]2CC[C@H](C2)C1=O [Compound T52]	40	0	80	90	0	0	0	0	0	0
COc1ccc(-c2ccc(Cl)cc2Cl)cc1C1=C(O)[C@H]2CC[C@H](C2)C1=O [Compound T53]	0	0	30	80	0	0	0	0	0	0
CCc1ccc(-c2ccc(Cl)cc2Cl)cc1C1=C(O)[C@H]2C=C[C@H](CC2)C1=O [Compound T56]	60	10	100	100	70	10	60	30	50	0
CCc1ccc(-c2ccc(Cl)cc2F)cc1C1=C(O)[C@H]2C=C[C@H](CC2)C1=O [Compound T57, 3-(4′-chloro-4-ethyl-2′-fluorobiphen-3-yl)bicyclo[3.2.2]non-6-ene-2,4-dione]	30	0	100	100	40	0	0	50	90	0
CCc1ccc(-c2ccc(Cl)cc2)cc1C1=C(O)C2CC(C1=O)C2(C)C (stereo not drawn) [Compound T69, 3-(4′-chloro-4-ethylbiphen-3-yl)-6,6-dimethylbicyclo[3.1.1]heptane-2,4-dione]	70	0	100	100	80	20	0	100	90	0
